Laboratory results reported in US4346099A, “Carboxy-imidazole derivatives, compositions and use” (Ono Pharmaceutical Co., Ltd., priority 1981, dated 1982).
Structures can show the parent of a compound that is named as a salt.

Molecular target: T1, thromboxane synthetase from rabbit platelet microsomes (Oryctolagus cuniculus, UniProt G1TAZ9)
T1 construct: thromboxane synthetase from rabbit platelet microsomes; from tissue; host or cells: rabbit platelet microsomes
T1 sequence (G1TAZ9 1-530): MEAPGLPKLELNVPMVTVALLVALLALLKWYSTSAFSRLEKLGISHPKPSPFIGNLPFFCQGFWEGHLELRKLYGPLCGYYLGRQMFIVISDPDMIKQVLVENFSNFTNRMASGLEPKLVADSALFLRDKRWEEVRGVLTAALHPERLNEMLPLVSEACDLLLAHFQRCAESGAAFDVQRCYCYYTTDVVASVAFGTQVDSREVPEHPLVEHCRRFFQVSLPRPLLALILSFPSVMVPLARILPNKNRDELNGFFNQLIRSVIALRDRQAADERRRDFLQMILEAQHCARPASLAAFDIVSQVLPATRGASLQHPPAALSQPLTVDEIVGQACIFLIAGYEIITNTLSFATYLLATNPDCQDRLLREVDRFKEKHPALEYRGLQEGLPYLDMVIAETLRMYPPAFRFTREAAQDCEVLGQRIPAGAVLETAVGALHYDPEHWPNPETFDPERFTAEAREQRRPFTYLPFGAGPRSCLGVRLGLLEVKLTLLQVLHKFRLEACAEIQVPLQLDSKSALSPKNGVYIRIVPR
Assay: inhibition of thromboxane synthetase from rabbit platelet microsomes (standard laboratory tests)
Type: biochemical

Row | IC50 [nM] | SMILES
1 | 46 | O=C(O)C1(CCCCCCn2ccnc2)CCCCC1 [1-(7-carboxy-7,7-pentanoheptyl)imidazole hydrochloride]
2 | 38 | O=C(O)C(CCCCCCn1ccnc1)c1ccccc1 (centres unmarked) [1-(7-carboxy-7-phenylheptyl)imidazole hydrochloride]
